Results: the supplement of paper PMC9663587

How the values were obtained:
[1] = compound: CCN1CCN(Cc2ccc(Nc3ncc(F)c(-c4cc(F)c5nc(C)n(C(C)C)c5c4)n3)nc2)CC1; assay: GR value, 72 h; higher = faster growth (1 = untreated, <0 = killing);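 further: breast cancer and non-malignant breast epithelial lines, nine half-log doses, viable cells counted by Hoechst and LIVE/DEAD dye imaging versus time-zero plates and DMSO controls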
THZ1 = compound: CN(C)C/C=C/C(=O)Nc1ccc(C(=O)Nc2cccc(Nc3ncc(Cl)c(-c4c[nH]c5ccccc45)n3)c2)cc1 [THZ1]; assay: as above
[2] = compound: CCc1cnn2c(NCc3ccc[n+]([O-])c3)cc(N3CCCC[C@H]3CCO)nc12; assay: as above
BSJ-03-123 = compound: CC(=O)c1c(C)c2cnc(Nc3ccc(N4CCN(CCOCCOCCOCCNC(=O)COc5cccc6c5C(=O)N(C5CCC(=O)NC5=O)C6=O)CC4)cn3)nc2n(C2CCCC2)c1=O [BSJ-03-123]; assay: as above
YKL-5-124 = compound: C=CC(=O)Nc1ccc(C(=O)Nc2[nH]nc3c2CN(C(=O)N[C@H](CN(C)C)c2ccccc2)C3(C)C)cc1 [YKL-5-124]; assay: as above
THZ531 = compound: CN(C)C/C=C/C(=O)Nc1ccc(C(=O)N2CCC[C@@H](Nc3ncc(Cl)c(-c4c[nH]c5ccccc45)n3)C2)cc1 [THZ531]; assay: as above
Flavopiridol [3] = compound: T1, CN1CC[C@H](c2c(O)cc(O)c3c(=O)cc(-c4ccccc4Cl)oc23)[C@H](O)C1 [Flavopiridol]; assay: as above
Neratinib/HKI272 = compound: CCOc1cc2ncc(C#N)c(Nc3ccc(OCc4ccccn4)c(Cl)c3)c2cc1NC(=O)/C=C/CN(C)C [Neratinib/HKI272]; assay: as above
[4] = compound: CC(=O)c1c(C)c2cnc(Nc3ccc(N4CCNCC4)cn3)nc2n(C2CCCC2)c1=O; assay: as above
LEE011/Ribociclib = compound: CN(C)C(=O)c1cc2cnc(Nc3ccc(N4CCNCC4)cn3)nc2n1C1CCCC1 [LEE011/Ribociclib]; assay: as above
Taselisib/GDC0032 = compound: Cc1nc(-c2cn3c(n2)-c2ccc(-c4cnn(C(C)(C)C(N)=O)c4)cc2OCC3)n(C(C)C)n1 [Taselisib/GDC0032]
ABT-737 = compound: CN(C)CC[C@H](CSc1ccccc1)Nc1ccc(S(=O)(=O)NC(=O)c2ccc(N3CCN(Cc4ccccc4-c4ccc(Cl)cc4)CC3)cc2)cc1[N+](=O)[O-] [ABT-737]
Saracatinib/AZD0530 = compound: CN1CCN(CCOc2cc(OC3CCOCC3)c3c(Nc4c(Cl)ccc5c4OCO5)ncnc3c2)CC1 [Saracatinib/AZD0530]
Flavopiridol [5] = compound: T1, Flavopiridol
[6] = compound: CO[C@@H](C)Cn1c(=O)n(C)c2cnc3ccc(-c4cncc(C(C)(C)O)c4)cc3c21
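Wherever GR50, 72 h is given: breast cancer and non-malignant breast epithelial cell lines, Deep Dye Drop or Dye Drop imaging, nine half-log doses, GR normalized to time-zero plates and DMSO-only controls.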

For HCC38, the GR value ([1]; 0.001 µM) was 0.924 GR, the GR value ([1]; 0.003162 µM) was 0.846 GR and the GR value ([1]; 0.01 µM) was 0.738 GR. The GR value ([1]; 0.03162 µM) was 0.452 GR, the GR value ([1]; 0.1 µM) was 0.275 GR and the GR value ([1]; 0.3162 µM) was 0.206 GR. It also gave a GR value ([1]; 1 µM) of 0.122 GR, a GR value ([1]; 3.162 µM) of -0.0767 GR and a GR value ([1]; 10 µM) of -0.335 GR. The GR value (THZ1; 0.0001 µM) was 1.1 GR, the GR value (THZ1; 0.0003162 µM) was 1.05 GR and the GR value (THZ1; 0.001 µM) was 1.05 GR. For the same cell line, the GR value (THZ1; 0.003162 µM) was 0.951 GR, the GR value (THZ1; 0.01 µM) was 0.724 GR and the GR value (THZ1; 0.03162 µM) was 0.452 GR. It also gave a GR value (THZ1; 0.1 µM) of -0.224 GR, a GR value (THZ1; 0.3162 µM) of -0.367 GR and a GR value (THZ1; 1 µM) of -0.572 GR. It also gave a GR value ([2]; 0.0001 µM) of 0.989 GR, a GR value ([2]; 0.0003162 µM) of 1.05 GR and a GR value ([2]; 0.001 µM) of 1.05 GR. It also gave a GR value ([2]; 0.003162 µM) of 1.14 GR, a GR value ([2]; 0.01 µM) of 0.761 GR and a GR value ([2]; 0.03162 µM) of -0.374 GR. The GR value ([2]; 0.1 µM) was -0.453 GR, the GR value ([2]; 0.3162 µM) was -0.435 GR and the GR value ([2]; 1 µM) was -0.453 GR. It also gave a GR value (BSJ-03-123; 0.001 µM) of 0.699 GR, a GR value (BSJ-03-123; 0.003162 µM) of 0.719 GR and a GR value (BSJ-03-123; 0.01 µM) of 0.468 GR. It also gave a GR value (BSJ-03-123; 0.03162 µM) of 0.463 GR, a GR value (BSJ-03-123; 0.1 µM) of 0.454 GR and a GR value (BSJ-03-123; 0.3162 µM) of 0.419 GR. The GR value (BSJ-03-123; 1 µM) was 0.341 GR, the GR value (BSJ-03-123; 3.162 µM) was 0.306 GR and the GR value (BSJ-03-123; 10 µM) was -0.0958 GR. For the same cell line, the GR value (YKL-5-124; 0.001 µM) was 0.436 GR, the GR value (YKL-5-124; 0.003162 µM) was 0.282 GR and the GR value (YKL-5-124; 0.01 µM) was 0.219 GR. It also gave a GR value (YKL-5-124; 0.03162 µM) of 0.111 GR, a GR value (YKL-5-124; 0.1 µM) of 0.0509 GR and a GR value (YKL-5-124; 0.3162 µM) of -0.0003 GR. It also gave a GR value (YKL-5-124; 1 µM) of -0.0242 GR, a GR value (YKL-5-124; 3.162 µM) of -0.079 GR and a GR value (YKL-5-124; 10 µM) of -0.393 GR. For the same cell line, the GR value (THZ531; 0.0001 µM) was 0.922 GR, the GR value (THZ531; 0.0003162 µM) was 1.03 GR and the GR value (THZ531; 0.001 µM) was 1.04 GR. It also gave a GR value (THZ531; 0.003162 µM) of 0.998 GR, a GR value (THZ531; 0.01 µM) of 1.07 GR and a GR value (THZ531; 0.03162 µM) of 1.02 GR. It also gave a GR value (THZ531; 0.1 µM) of 0.765 GR, a GR value (THZ531; 0.3162 µM) of 0.0587 GR and a GR value (THZ531; 1 µM) of -0.335 GR. The GR value (Flavopiridol [3]; 0.0001 µM) was 0.986 GR, the GR value (Flavopiridol [3]; 0.0003162 µM) was 0.927 GR and the GR value (Flavopiridol [3]; 0.001 µM) was 0.962 GR. For the same cell line, the GR value (Flavopiridol [3]; 0.003162 µM) was 0.855 GR, the GR value (Flavopiridol [3]; 0.01 µM) was 0.897 GR and the GR value (Flavopiridol [3]; 0.03162 µM) was 0.814 GR. It also gave a GR value (Flavopiridol [3]; 0.1 µM) of 0.591 GR, a GR value (Flavopiridol [3]; 0.3162 µM) of 0.182 GR and a GR value (Flavopiridol [3]; 1 µM) of -0.439 GR. For the same cell line, the GR value (Neratinib/HKI272; 0.0003162 µM) was 1.02 GR, the GR value (Neratinib/HKI272; 0.001 µM) was 1.03 GR and the GR value (Neratinib/HKI272; 0.003162 µM) was 0.987 GR. For the same cell line, the GR value (Neratinib/HKI272; 0.01 µM) was 0.96 GR, the GR value (Neratinib/HKI272; 0.03162 µM) was 0.879 GR and the GR value (Neratinib/HKI272; 0.1 µM) was 0.951 GR. It also gave a GR value (Neratinib/HKI272; 0.3162 µM) of 0.823 GR, a GR value (Neratinib/HKI272; 1 µM) of 0.846 GR and a GR value (Neratinib/HKI272; 3.162 µM) of 0.456 GR. The GR value ([4]; 0.0003162 µM) was 1.03 GR, the GR value ([4]; 0.001 µM) was 1.06 GR and the GR value ([4]; 0.003162 µM) was 0.926 GR. The GR value ([4]; 0.01 µM) was 0.889 GR, the GR value ([4]; 0.03162 µM) was 0.604 GR and the GR value ([4]; 0.1 µM) was 0.398 GR. The GR value ([4]; 0.3162 µM) was 0.31 GR, the GR value ([4]; 1 µM) was 0.239 GR and the GR value ([4]; 3.162 µM) was 0.133 GR. The GR value (LEE011/Ribociclib; 0.001 µM) was 0.807 GR, the GR value (LEE011/Ribociclib; 0.003162 µM) was 0.769 GR and the GR value (LEE011/Ribociclib; 0.01 µM) was 0.692 GR. For the same cell line, the GR value (LEE011/Ribociclib; 0.03162 µM) was 0.727 GR, the GR value (LEE011/Ribociclib; 0.1 µM) was 0.577 GR and the GR value (LEE011/Ribociclib; 0.3162 µM) was 0.511 GR. For the same cell line, the GR value (LEE011/Ribociclib; 1 µM) was 0.532 GR, the GR value (LEE011/Ribociclib; 3.162 µM) was 0.4 GR and the GR value (LEE011/Ribociclib; 10 µM) was 0.239 GR. For the same cell line, the “GR50, 72 h” value (Taselisib/GDC0032) was 2.7 µM, the “GR50, 72 h” value (ABT-737) was 0.998 µM and the “GR50, 72 h” value (Saracatinib/AZD0530) was over 10 µM. For the same cell line, the “GR50, 72 h” value (Flavopiridol [5]) was 0.139 µM and the “GR50, 72 h” value [6] was 0.00435 µM.
